Laboratory results taken from patent US20260325685A1, “Radiopharmaceutical Compositions Targeting Carbonic Anhydrase IX and Uses Thereof” (RayzeBio, Inc., priority 2023, published 2026).
Read-outs that look alike come from different tables or passages of the source.

Columns and labels:
human CA-XII = target: T1, human CA-XII (Homo sapiens, UniProt O43570); experiment: Surface Plasmon Resonance (SPR) binding kinetics to recombinant human CA-XII (Biacore 8K, single-cycle kinetics, 1:1 binding model)
T1 construct: purchased Creative BioMart CA12-261H
T1 sequence (O43570 25-354): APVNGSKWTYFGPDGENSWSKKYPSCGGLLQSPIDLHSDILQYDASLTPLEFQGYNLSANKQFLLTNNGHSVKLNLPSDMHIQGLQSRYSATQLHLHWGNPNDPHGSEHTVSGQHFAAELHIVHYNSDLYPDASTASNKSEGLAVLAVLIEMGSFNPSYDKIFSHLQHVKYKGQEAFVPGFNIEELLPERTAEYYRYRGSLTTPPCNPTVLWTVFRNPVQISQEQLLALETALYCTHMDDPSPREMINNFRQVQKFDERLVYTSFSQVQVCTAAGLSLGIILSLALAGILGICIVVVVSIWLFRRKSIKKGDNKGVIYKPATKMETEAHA
How it was run: (§1)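 Using captured protein at 1200-1800 RU, we injected compound at 100-0.39 nM in 1% DMSO buffer, pH 7.4, 25° C, then corrected curves for reference and DMSO to obtain rate constants.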

human CA-IX = target: T2, human CA-IX (Homo sapiens, UniProt Q16790); experiment: Surface Plasmon Resonance (SPR) binding kinetics to recombinant human CA-IX (Biacore 8K, single-cycle kinetics, 1:1 binding model)
T2 construct: purchased Acro CA9-H82E3
How it was run: as §1

[1] = Chelated Metal: Lu-175, 25° C., pH 7.4, read-out: CAXII KD
[2] = Chelated Metal: Lu-175; SPR, 25° C., pH 7.4; read-out: CAIX KD

Row | SMILES | Kd (human CA-XII; [1]) | Kd (human CA-IX; [2]) | Kd (human CA-XII; read-out: CAXII KD, Chelated Metal: Lu-175, 25° C., pH 7.4) | Kd (human CA-IX; read-out: CAIX KD; Chelated Metal: Lu-175; SPR, 25° C., pH 7.4)
1 | CC(CCCC(=O)N1CCC(C(=O)O)(C(=O)NCC(=O)NC2(C(=O)NCCn3cc(C45CC(C(=O)Nc6nnc(S(N)(=O)=O)s6)(C4)C5)nn3)CCN(C(=O)CN3CCN(CC(=O)O)CCN(CC(=O)O)CCN(CC(=O)O)CC3)CC2)CC1)(c1ccc(O)cc1)c1ccc(O)cc1.[Lu+3] (single isomer, unassigned) [Compound 117.4] | > 10 nM | 1 to 2.5 nM |  | 
2 | CC(CCCC(=O)N1CCC(C(=O)O)(C(=O)NCC(=O)N2CCN(C(=O)CN3CCN(CC(=O)O)CCN(CC(=O)O)CCN(CC(=O)O)CC3)C[C@@H]2C(=O)NCCn2cc(C34CC(C(=O)Nc5nnc(S(N)(=O)=O)s5)(C3)C4)nn2)CC1)(c1ccc(O)cc1)c1ccc(O)cc1.[Lu+3] [Compound 107.12] | > 10 nM | 1 to 2.5 nM |  | 
3 | CC1(c2ccc(C(=O)N[C@@H](CC(=O)N[C@@H](CC(=O)N3CCN(C(=O)CN4CCN(CC(=O)O)CCN(CC(=O)O)CCN(CC(=O)O)CC4)C[C@H]3C(=O)NCCn3cc(C45CC(C(=O)Nc6nnc(S(N)(=O)=O)s6)(C4)C5)nn3)C(=O)O)C(=O)O)cc2)CC1.[Lu+3] [Compound 109.22] | 2.5 to 10 nM | 1 to 2.5 nM |  | 
4 | N[C@@H](CC(=O)N[C@@H](CCC(=O)N1CCN(C(=O)CN2CCN(CC(=O)O)CCN(CC(=O)O)CCN(CC(=O)O)CC2)C[C@H]1C(=O)NCCn1cc(C23CCC(C(=O)Nc4nnc(S(N)(=O)=O)s4)(CC2)CC3)nn1)C(=O)O)C(=O)O.[Lu+3] [Compound 109.60] | 1 to 2.5 nM | < 1 nM |  | 
5 | CC(CCC(=O)N[C@@H](CC(=O)N[C@@H](CC(=O)NC1(C(=O)NCCn2cc(C34CC(C(=O)Nc5nnc(S(N)(=O)=O)s5)(C3)C4)nn2)CCN(C(=O)CN2CCN(CC(=O)O)CCN(CC(=O)O)CCN(CC(=O)O)CC2)CC1)C(=O)O)C(=O)O)(c1ccc(O)cc1)c1ccc(O)cc1.[Lu+3] [Compound 117] |  |  | > 10 nM | 1 to 2.5 nM
6 | CC(CCC(=O)N[C@@H](CC(=O)N[C@@H](CC(=O)N1CCN(C(=O)CN2CCN(CC(=O)O)CCN(CC(=O)O)CCN(CC(=O)O)CC2)C[C@H]1C(=O)NCCn1cc(C23CC(C(=O)Nc4nnc(S(N)(=O)=O)s4)(C2)C3)nn1)C(=O)O)C(=O)O)(c1ccccc1)c1ccc(O)cc1.[Lu+3] (some centres unmarked) [Compound 109.33] | > 10 nM | 1 to 2.5 nM |  | 
7 | NS(=O)(=O)c1nnc(NC(=O)C23CC(c4cn(CCNC(=O)[C@@H]5CN(C(=O)CN6CCN(CC(=O)O)CCN(CC(=O)O)CCN(CC(=O)O)CC6)CCN5C(=O)CNC(=O)C5(C(=O)O)CCN(C(=O)CCCCc6ccc(O)cc6)CC5)nn4)(C2)C3)s1.[Lu+3] [Compound 112.3] | > 10 nM | 1 to 2.5 nM |  | 
8 | NS(=O)(=O)c1nnc(NC(=O)C23CC(c4cn(CCNC(=O)[C@@H]5CN(C(=O)CN6CCN(CC(=O)O)CCN(CC(=O)O)CCN(CC(=O)O)CC6)CCN5C(=O)C[C@H](Nc5ncc(C(=O)NCc6coc(C(F)(F)F)n6)cn5)C(=O)O)nn4)(C2)C3)s1.[Lu+3] [Compound 111.5] | > 10 nM | 2.5 to 10 nM |  | 
9 | CC(CCCC(=O)N1CCC(C(=O)O)(C(=O)NCC(=O)N2CCN(C(=O)CN3CCN(CC(=O)O)CCN(CC(=O)O)CCN(CC(=O)O)CC3)C[C@@H]2C(=O)NCCn2cc(C34CCC(C(=O)Nc5nnc(S(N)(=O)=O)s5)(C3)C4)nn2)CC1)(c1ccc(O)cc1)c1ccc(O)cc1.[Lu+3] [Compound 107.24] | 2.5 to 10 nM | 1 to 2.5 nM |  | 
10 | NS(=O)(=O)c1nnc(NC(=O)C23CCC(c4cn(CCNC(=O)[C@@H]5CN(C(=O)CN6CCN(CC(=O)O)CCN(CC(=O)O)CCN(CC(=O)O)CC6)CCN5C(=O)CC[C@H](NC(=O)C[C@H](NC(=O)c5ccc(C6CC6)cc5)C(=O)O)C(=O)O)nn4)(CC2)CC3)s1.[Lu+3] [Compound 109.54] | < 1 nM | < 1 nM |  | 
11 | CC(CCCC(=O)N1CCC(C(=O)O)(C(=O)NCC(=O)N2CCN(C(=O)CN3CCN(CC(=O)O)CCN(CC(=O)O)CCN(CC(=O)O)CC3)C[C@H]2C(=O)NCCn2cc(C34CCC(C(=O)Nc5nnc(S(N)(=O)=O)s5)(CC3)CC4)nn2)CC1)(c1ccc(O)cc1)c1ccc(O)cc1.[Lu+3] [Compound 107.9] | 1 to 2.5 nM | < 1 nM |  | 
12 | CC(CCC(=O)N1CCOC[C@@H]1C(=O)N[C@@H](CC(=O)N1CCN(C(=O)CN2CCN(CC(=O)O)CCN(CC(=O)O)CCN(CC(=O)O)CC2)C[C@@H]1C(=O)NCCn1cc(C23CC(C(=O)Nc4nnc(S(N)(=O)=O)s4)(C2)C3)nn1)C(=O)O)(c1ccc(O)cc1)c1ccc(O)cc1.[Lu+3] [Compound 108.4] | > 10 nM | 1 to 2.5 nM |  | 
13 | CC(CCC(=O)N[C@@H](CC(=O)N[C@@H](CC(=O)N[C@@H](CCCCn1cc(C23CCC(C(=O)Nc4nnc(S(N)(=O)=O)s4)(CC2)C3)nn1)C(=O)N1CC2(CN(C(=O)CN3CCN(CC(=O)O)CCN(CC(=O)O)CCN(CC(=O)O)CC3)C2)C1)C(=O)O)C(=O)O)(c1ccc(O)cc1)c1ccc(O)cc1.[Lu+3] [Compound 100.10] | < 1 nM | < 1 nM |  | 
